Experimental data published in US7524840B2, “7,8-disubstituted pyrazolobenzodiazepines” (Hoffmann-La Roche Inc., priority 2004, dated 2009).

Experiments:
KDR = biological target: T1, KDR (Homo sapiens, UniProt P35968); assay: KDR kinase HTRF assay; type: biochemical
T1 construct: EEE tag
Method: (§1) To determine inhibition of KDR and FGFR, kinase assays were conducted using an HTRF (Homogeneous Time Resolved Fluorescence) assay. This assay is described in A. J. Kolb et. al., Drug Discovery Today, 1998, 3(7), p 333.
Prior to kinase reaction, recombinant EEE-tagged KDR was activated in the presence of activation buffer (50 mM HEPES, pH 7.4, 1 mM DTT, 10% glycerol, 150 mM NaCl, 0.1 mM EDTA, 26 mM MgCl2, and 4 mM ATP). The enzyme was incubated at 4° C. for 1 hour.
Kinase activity assays were performed in 96-well polypropylene plates (Falcon) with a total volume of 90 μL in each well. Each well contained 1 μM KDR substrate (Biotin-[…]), 1 nM activated KDR, and a test compound with one of 8 assay concentrations ranging from […] to […] (1:5 serial dilution). […] The reaction was incubated at 37° C. for 30 minutes. To stop the KDR reaction, 72 μL of reaction mixture was transferred into a STOP plate containing 18 μL of revelation buffer (20 mM EDTA, 50 mM HEPES, pH 7.4, 0.02% BSA, 10 nM Eu-labelled anti-pY antibody (final conc. 2 nM), and 100 nM streptavidin (final conc. 20 nM)). After mixing, 35 μL of solution was transferred into duplicate wells of a 384-well black plate (Costar), and read at 615/665 nm on a Wallac Victor 5 reader.
(§2) Compound IC50 values were determined from duplicate sets of data, and calculated by using Excel and fitting data to equation Y=[(a−b)/{1+(X/c)^d]+b, where a and b are enzyme activity in the presence of no test inhibitor compound and an infinite amount of inhibitor test compound, respectively, c is the IC50 and d is the hill constant of the compound response. The IC50 value is the concentration of test compound that reduces by 50% the enzyme activity under the test conditions described.

VEGF-stimulated HUVEC = VEGF-stimulated HUVEC proliferation assay (BrdU); type: cell-based; details: Homo sapiens, BrdU labeling, VEGF 20 ng per mL, 24 hour exposure, read-out: Antiproliferative Activity VEGF-stimulated HUVEC Assay IC50
Method: (§3) The antiproliferative activity of test compounds of this invention in cell-based assays was evaluated by BrdU assay using the BrdU kit (Roche Biochemicals 1-647-229). Human umbilical vein endothelial cells (HUVEC, Clonetics CC-2519) were cultured in EGM-2 (Clonetics CC-3162) medium and seeded at 10000 cells per well in a volume of 200 μL of EGM-2 (Clonetics CC-3162) media in a 96-well flat bottom plates (Costar 3595) overnight. After 24 hours of growth at 37° C. with 5% CO2, the incubation media was removed slowly by aspiration, and the content of each well was washed with 300 μL pre-warmed EBM-2 (Clonetics CC-3156) containing 50 μg per mL of gentamycin and 50 ng per mL of amphotercin-B (Clonetics CC-4083). Subsequently, the remaining media was again aspirated and replaced with 160 μL per well of serum starvation media (EBM-2 supplemented with 1% heat inactivated FBS (Clonetics CC-4102), 50 μg per mL gentamycin and 50 ng per mL of amphotercin-B (Clonetics CC-4083), 10 units per mL of Wyeth-Ayerst heparin (NDC0641-0391-25), and 2 mM L-glutamine (GIBCO 25030-081). After serum starving the cells for 24 hours, 20 μL of test compound at 10× test concentration in serum starvation medium with 2.5% DMSO was added to the appropriate wells. The control wells contained 20 μL of serum starvation medium with 2.5% DMSO. Plates were returned to the incubator for 2 hours. After pre-incubating the cells with the test compounds for 2 hours, 20 μL of growth factors at 10X assay concentration diluted in serum starvation media, FGF at 50 ng per mL, or VEGF (R&D systems 293-VE) at 200 ng per mL were added. The final concentration of FGF in the assay was 5 ng per mL and the final concentration of VEGF in the assays was 20 ng per mL. The growth factor free control wells had 20 μL per well of serum starvation media with the same amount of BSA as the wells with growth factors. The plates were returned to the incubator for an additional 22 hours.
(§4) After 24 hour exposure to the test compounds, the cells were labeled with BrdU (Roche Biochemicals 1-647-229), by adding 20 μL per well of BrdU labeling reagent that has been diluted (1:100) in serum starvation medium. The plates were then returned to the incubator for 4 hours. The labeling medium was removed by draining the medium onto paper towels. […] The plates were read at 450 nm with reference wavelength of 650 nm. The percent inhibition for each test compound was calculated by subtracting the absorbency of the blank (no cells) wells from all wells, then subtracting the division of the average absorbency of each test duplicate by the average of the controls from 1. […] The IC50 is determined from the linear regression of a plot of the logarithm of the concentration versus percent inhibition.

FGFR = biological target: T2, FGFR; assay: FGFR kinase HTRF assay; type: biochemical; details: 1.5 nM activated FGFR, 10 μM ATP; read-out: Inhibition of FGFR IC50
T2 construct: fused on or other part: GST tag
Method: as §1
FGFR activity assays were carried out as described above for the KDR activity assay with the following differences. GST-tagged FGFR enzyme was activated at room temperature for 1 hour in the following activation buffer: 100 mM HEPES, pH 7.4, 50 mM NaCl, 20 mM MgCl2, and 4 mM ATP. […] The rest of the assay was performed in the same manner as KDR assay.
as §2

FGF-stimulated HUVEC = FGF-stimulated HUVEC proliferation assay (BrdU); type: cell-based; details: Homo sapiens, BrdU labeling, FGF 5 ng per mL, 24 hour exposure, read-out: Antiproliferative Activity FGF-stimulated HUVEC Assay IC50
Method: as §3, §4

T1 sequence (P35968 20-1356, species assumed): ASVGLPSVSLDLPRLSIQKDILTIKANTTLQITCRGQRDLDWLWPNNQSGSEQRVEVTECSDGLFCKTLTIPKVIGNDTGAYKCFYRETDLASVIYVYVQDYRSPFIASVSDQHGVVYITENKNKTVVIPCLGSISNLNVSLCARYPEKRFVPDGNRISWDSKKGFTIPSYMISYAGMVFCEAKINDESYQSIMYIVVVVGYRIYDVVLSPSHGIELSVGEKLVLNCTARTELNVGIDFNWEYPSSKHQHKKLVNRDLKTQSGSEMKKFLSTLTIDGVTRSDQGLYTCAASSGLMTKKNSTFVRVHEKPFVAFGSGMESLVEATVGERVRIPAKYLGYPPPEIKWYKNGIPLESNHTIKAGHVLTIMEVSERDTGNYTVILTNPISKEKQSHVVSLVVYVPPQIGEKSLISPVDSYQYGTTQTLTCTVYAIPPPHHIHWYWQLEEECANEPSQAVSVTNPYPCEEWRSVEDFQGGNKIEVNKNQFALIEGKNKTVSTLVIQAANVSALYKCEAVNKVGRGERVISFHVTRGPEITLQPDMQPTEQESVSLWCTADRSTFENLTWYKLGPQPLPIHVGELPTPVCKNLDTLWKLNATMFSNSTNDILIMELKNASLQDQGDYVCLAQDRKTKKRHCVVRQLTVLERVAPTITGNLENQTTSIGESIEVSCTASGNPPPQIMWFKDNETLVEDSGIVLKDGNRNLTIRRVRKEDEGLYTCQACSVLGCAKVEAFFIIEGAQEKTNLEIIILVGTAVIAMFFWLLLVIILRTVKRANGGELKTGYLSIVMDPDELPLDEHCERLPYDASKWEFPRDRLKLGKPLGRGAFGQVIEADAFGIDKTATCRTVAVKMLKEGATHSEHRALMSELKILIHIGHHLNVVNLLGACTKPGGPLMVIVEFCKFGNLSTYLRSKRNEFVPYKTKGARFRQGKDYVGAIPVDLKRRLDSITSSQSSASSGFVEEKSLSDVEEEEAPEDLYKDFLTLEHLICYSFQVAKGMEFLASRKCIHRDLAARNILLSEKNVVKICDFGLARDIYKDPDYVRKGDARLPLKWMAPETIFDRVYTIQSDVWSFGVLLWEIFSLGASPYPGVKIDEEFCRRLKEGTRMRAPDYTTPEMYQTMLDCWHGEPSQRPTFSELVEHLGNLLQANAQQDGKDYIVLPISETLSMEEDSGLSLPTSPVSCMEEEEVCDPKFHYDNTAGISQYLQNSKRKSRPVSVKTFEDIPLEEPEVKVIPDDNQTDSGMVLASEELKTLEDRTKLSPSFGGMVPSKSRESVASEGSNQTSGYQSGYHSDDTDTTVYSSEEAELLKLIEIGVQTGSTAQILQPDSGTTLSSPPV

**Q.** With COc1cc2c(cc1F)C(c1ccccc1Cl)=Nc1c(n[nH]c1C)N2 [IVa, 5-(2-chlorophenyl)-1,2-dihydro-7-fluoro-8-methoxy-3-methyl-pyrazolo[3,4-b][1,4]benzodiazepine] as the molecule, how does the IC50 (KDR) read?
**A.** 10 nM

**Q.** And the IC50 (VEGF-stimulated HUVEC)?
**A.** 23 nM

**Q.** And the IC50 (FGFR)?
**A.** 28 nM

**Q.** And the IC50 (FGF-stimulated HUVEC)?
**A.** 100 nM
